Laboratory results reported in patent publication US20160166488A1, “MEDICAMENT” (SYMRISE AG, priority 2013, published 2016).

System: MMP-1
Test: Inhibition of MMP-1 synthesis: release of MMP-1 from dermal fibroblasts as an effect of UV radiation (Amersham kit RPN2610)
Type: cell-based
Settings: dermal fibroblast culture, test product conc. 0.001 % w/v, incubation 36 h at 37° C., threefold determination; for MMP with UVA: with UVA (method text: UVB radiation 50 mJ/cm^2)
Procedure: Inhibition of MMP-1 Synthesis
The capacity of the test substances to alleviate the toxic effect of UVA radiation was investigated. A culture of dermal fibroblasts was used as an in vitro system, and the release of MMP-1 from these fibroblasts as an effect of UV radiation was determined. In order to carry out the experiment, a fibroblast culture with fetal calf serum was prepared and inoculated with the test substances 2 days thereafter. After incubation for 36 h at 37° C. with a CO2 level of 5 vol %, the nutrient medium was replaced with an electrolyte solution, and the fibroblasts were damaged with a specified dose of UVB radiation (50 mJ/cm^2). Determination of MMP was carried out with a kit that is commercially available from the firm Amersham under the name RPN2610. The amount of MMP is given in ng/ml from a test series with threefold determination.

Row | Structure (SMILES) | MMP with UVA [rel. %] | MMP without UVA [rel. %]
1 | C[N+](C)(C)C[C@H](O)CC(=O)O.[Cl-] [Carnitine*HCl] | 118 ± 21 | 24 ± 7
2 | CCCCCCOC(=O)c1ccccc1C(=O)c1ccc(N(CC)CC)cc1O [Uvinul A, 2-(4-diethylamino-2-hydroxybenzoyl)-benzoic acid hexyl ester] | 99 ± 12 | 17 ± 3
3 | CCCCC(CC)COC(=O)C(C#N)=C(c1ccccc1)c1ccccc1 (centres unmarked) [Octocrinyl, 2-cyano-3,3-phenylcinnamic acid-2-ethylhexyl ester] | 100 ± 20 | 17 ± 7
4 | NCCC(=O)N[C@@H](Cc1cnc[nH]1)C(=O)O [L-carnosine] | 101 ± 17 | 22 ± 5
